Experimental data taken from patent US6825230B2, “Spiro and dispiro 1,2,4-trixolane antimalarials” (Medicines for Malaria Venture MMV, priority 2002, dated 2004).
Converted amounts (≈) assume the structure as drawn. Structures can show the parent of a compound that is named as a salt. Where two headings read alike, the source gives them in different places.

How the values were obtained:
[1] = system: Schistosoma mansoni 21-day-old schistosomules; test: Effect on 21-day-old schistosomules in infected mice; assay type: in vivo; conditions: for % reduction of schistosomule growth at day 21 after per os application of 200 mg/kg, FWR (%): female worm reduction rate
Procedure: Mice were infected with 100 Schistosoma mansoni cercariae on day 21 post-treatment. Each group was treated per os with trioxolanes at a single dose of 200 mg/kg. […] All groups were killed 4 weeks after treatment and the liver and intestine were removed and separated. The liver and intestine were compressed and alive male and female worms could be seen and counted. The effect of the compounds was evaluated by mean total and female worm burden.

[2] = system: Schistosoma mansoni adult worms (49-day-old); test: Effect on adult schistosomes (49-day-old) in infected mice; assay type: in vivo; conditions: for % reduction of adult worms growth at day 49 after per os application of 400 mg/kg, TWR (%) / Adult worms day 49, per os 400 mg/kg, DEAD WORM (%): single 400 mg/kg per os
Procedure: Mice were infected with 100 Schistosoma mansoni cercariae on day 49 post-treatment. Each group was treated per os with OZ compounds at single doses of 200, 400, and 600 mg/kg. Untreated mice served as the control. All groups were killed 4 weeks after treatment and the liver and intestine were removed and separated. The liver and intestine were compressed and alive male and female worms could be seen and counted.

[3] = system: ANKA strain of Plasmodium berghei; test: Single dose ED50/ED90/ED99 determination in infected mice; assay type: in vivo
Procedure: In the single dose ED50/ED98/ED99 determinations, Moro SPF or NMRI mice (group of three) infected with the ANKA strain of Plasmodium berghei were treated on day one post-infection. […] The SSV consists of 0.5% w/v CMC, 0.5% v/v benzyl alcohol, 0.4% v/v Tween 80, and 0.9% w/v sodium chloride in water. Antimalarial activity was measured by percent reduction in parasitemia on day three post-infection. The ED50/ED90 values were calculated by nonlinear fitting.
The ED50, ED90, and ED99 values were calculated by non-linear fitting with statistical program and were expressed in mg/kg.

[4] = system: chloroquine-resistant K1 strain of P. falciparum; test: In vitro antimalarial semiautomated microdilution assay ([3H]-hypoxanthine incorporation), K1 strain; assay type: cell-based, Plasmodium falciparum; conditions: Plasmodium falciparum
Procedure, shortened: (§1)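 Logit regression analysis yields the fifty percent inhibitory concentration. Compounds are tested by semiautomated microdilution on intraerythrocytic parasites drawn from asynchronous stock cultures, measuring [3H]-hypoxanthine incorporation.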

[5] = system: chloroquine-sensitive NF54 strain of P. falciparum; test: In vitro antimalarial semiautomated microdilution assay ([3H]-hypoxanthine incorporation), NF54 strain; assay type: cell-based, Plasmodium falciparum; conditions: Plasmodium falciparum
Procedure, shortened: as §1

[6] = system: ANKA strain of P. berghei; test: Single dose STI in vivo screen in infected mice; set-up: species or system Plasmodium berghei; conditions: for Survival (days) 10 mg/kg po: single 10 mg/kg po in 3% ethanol and 7% Tween 80; for Survival (days) 10 mg/kg po / Survival (days) 10 mg/kg SSV po / Survival (days) 10 mg/kg sc: untreated 6-7 days; for Activity (%) 10 mg/kg po: single 10 mg/kg po in 3% ethanol and 7% Tween 80 on day 1 post-infection; for Activity (%) 10 mg/kg po / Activity (%) 10 mg/kg SSV po / Activity (%) 10 mg/kg sc: percent reduction in parasitemia on day 3; for Survival (days) 10 mg/kg SSV po: single 10 mg/kg po in SSV; for Activity (%) 10 mg/kg SSV po: single 10 mg/kg po in standard suspending vehicle (SSV) on day 1 post-infection; for Survival (days) 10 mg/kg sc: single 10 mg/kg sc in 3% ethanol and 7% Tween 80; for Activity (%) 10 mg/kg sc: single 10 mg/kg sc in 3% ethanol and 7% Tween 80 on day 1 post-infection
[7] = single 200 mg/kg per os, 21-day-old schistosomules
[8] = 49-day-old adults, total worm reduction rate
[9] = percentage of dead worm in the liver
[10] = single dose po in SSV on day 1 post-infection, parasitemia day 3, nonlinear fitting
[11] = Plasmodium berghei, single dose po in SSV on day 1 post-infection, parasitemia day 3, nonlinear fitting, read-out: ED50
[12] = K1, 72 h, read-out: IC50 (ng/ml) K1, chloroquine-resistant K1 strain, 72 h incubation
[13] = NF54, 72 h, read-out: IC50 (ng/ml) NF54, chloroquine-sensitive NF54 strain, 72 h incubation
[14] = Plasmodium berghei, po, single dose po in SSV on day 1 post-infection, parasitemia day 3, nonlinear fitting

Row | SMILES | % reduction of schistosomule growth at day 21 after per os application of 200 mg/kg, TWR (%) ([1]; po, 200 mg/kg, 504 h) | % reduction of schistosomule growth at day 21 after per os application of 200 mg/kg, FWR (%) [1, 7] [%] | % reduction of adult worms growth at day 49 after per os application of 400 mg/kg, TWR (%) [2, 8] [%] | Adult worms day 49, per os 400 mg/kg, DEAD WORM (%) [2, 9] [%] | ED90 ([3]; po) [mg/kg] | ED99 [3, 10] [mg/kg] | ED50 [3, 11] [mg/kg] | ED90 [3, 10] [mg/kg] | IC50 [4, 12] [ng/mL] | IC50 [5, 13] [ng/mL] | Survival (days) 10 mg/kg po [6] [days] | Activity (%) 10 mg/kg po [6] [%] | Survival (days) 10 mg/kg SSV po [6] [days] | Activity (%) 10 mg/kg SSV po [6] [%] | Survival (days) 10 mg/kg sc [6] [days] | Activity (%) 10 mg/kg sc [6] [%] | ED50 [3, 14] [mg/kg] | also measured
1 | O=C1CCC2(CC1)OOC1(O2)C2CC3CC(C2)CC1C3 (centres unmarked) [OZ05] | 90 | 88 | 23 | 32 | 12 | 15 |  |  |  |  |  |  |  |  |  |  |  | % reduction of adult worms growth at day 49 after per os application of 200 mg/kg, TWR (%) ([2]; single 200 mg/kg per os, 49-day-old adults, total worm reduction rate): 46%; Adult worms day 49, per os 200 mg/kg, DEAD WORM (%) ([2]; single 200 mg/kg per os, percentage of dead worm in the liver): 12%; % reduction of adult worms growth at day 49 after per os application of 600 mg/kg, TWR (%) ([2]; single 600 mg/kg per os, 49-day-old adults, total worm reduction rate): 70%; Adult worms day 49, per os 600 mg/kg, DEAD WORM (%) ([2]; single 600 mg/kg per os, percentage of dead worm in the liver): 58%
2 | c1ccc(C2CCC3(CC2)OOC2(O3)C3CC4CC(C3)CC2C4)cc1 (centres unmarked) [OZ27] | 63 | 58 | 20 | 10 |  | 9.9 | 2.9 | 5.7 |  |  |  |  |  |  |  |  |  | 
3 | CC(C)(O)C[C@H]1CC[C@]2(CC1)OOC1(O2)C2CC3CC(C2)CC1C3 (some centres unmarked) [OZ205] |  | 83 | 0 | 12 |  | 6.0 |  | 3.3 | 1.5 (≈ 4.46 nM) | 2 (≈ 5.94 nM) | 10.0 | 99.96 | 8.7 | 99.94 | 9.7 | 99.96 | 1.6 | % reduction of schistosomule growth at day 21 after per os application of 200 mg/kg, TWR (%) ([1]; single 200 mg/kg per os, 21-day-old schistosomules, total worm reduction rate): 84%
4 | c1cn(CC[C@H]2CC[C@]3(CC2)OOC2(O3)C3CC4CC(C3)CC2C4)cn1 (some centres unmarked) [OZ219] |  |  |  |  | 3.0 | 5.2 | 1.6 |  |  |  | 8.7 | 99.89 | 8.0 | 99.82 | 9.3 | 99.91 |  | IC50 ([4]; chloroquine-resistant K1 strain, 72 h incubation, read-out: IC50 (ng/ml) K1): 0.85 ng/mL (≈ 2.37 nM); IC50 ([5]; chloroquine-sensitive NF54 strain, 72 h incubation, read-out: IC50 (ng/ml) NF54): 1.6 ng/mL (≈ 4.46 nM)
5 | CN1CCN(C(=O)C[C@H]2CC[C@]3(CC2)OOC2(O3)C3CC4CC(C3)CC2C4)CC1 (some centres unmarked) [OZ227] |  |  |  |  |  | 6.2 |  | 4.0 | 0.2 (≈ 0.494 nM) | 0.2 (≈ 0.494 nM) | 8.3 | 99.68 | 9.3 | 99.90 | 10.7 | 99.84 | 2.3 | 
6 | c1ncn(C[C@H]2CC[C@]3(CC2)OOC2(O3)C3CC4CC(C3)CC2C4)n1 (stereo partly drawn) [OZ235, cis-Adamantane-2-spiro-3′-8′-(1′H-1′,2′,4′-triazol-1′-ylmethyl)-1′,2′,4-trioxaspiro[4.5]decane mesylate] |  |  |  |  |  | 11 |  | 7.1 | 1 | 2 |  |  |  |  |  |  |  | Survival (days) 10 mg/kg po ([6]; 10 mg/kg): 8.7 days; Activity (%) 10 mg/kg po ([6]; 10 mg/kg): 99.92%; Survival (days) 10 mg/kg SSV po ([6]; 10 mg/kg): 9.0 days; Activity (%) 10 mg/kg SSV po ([6]; 10 mg/kg): 99.97%; Survival (days) 10 mg/kg sc ([6]; 10 mg/kg): 8.0 days; Activity (%) 10 mg/kg sc ([6]; 10 mg/kg): 97%; ED50 [3, 10]: 4.0 mg/kg
